Holding throughout (assay): TLR7/8/9 Inhibition Reporter Assays
One test has as its target T1, Toll-like receptor 9 (Homo sapiens, UniProt Q9NR96).
T1 sequence (Q9NR96 whole entry): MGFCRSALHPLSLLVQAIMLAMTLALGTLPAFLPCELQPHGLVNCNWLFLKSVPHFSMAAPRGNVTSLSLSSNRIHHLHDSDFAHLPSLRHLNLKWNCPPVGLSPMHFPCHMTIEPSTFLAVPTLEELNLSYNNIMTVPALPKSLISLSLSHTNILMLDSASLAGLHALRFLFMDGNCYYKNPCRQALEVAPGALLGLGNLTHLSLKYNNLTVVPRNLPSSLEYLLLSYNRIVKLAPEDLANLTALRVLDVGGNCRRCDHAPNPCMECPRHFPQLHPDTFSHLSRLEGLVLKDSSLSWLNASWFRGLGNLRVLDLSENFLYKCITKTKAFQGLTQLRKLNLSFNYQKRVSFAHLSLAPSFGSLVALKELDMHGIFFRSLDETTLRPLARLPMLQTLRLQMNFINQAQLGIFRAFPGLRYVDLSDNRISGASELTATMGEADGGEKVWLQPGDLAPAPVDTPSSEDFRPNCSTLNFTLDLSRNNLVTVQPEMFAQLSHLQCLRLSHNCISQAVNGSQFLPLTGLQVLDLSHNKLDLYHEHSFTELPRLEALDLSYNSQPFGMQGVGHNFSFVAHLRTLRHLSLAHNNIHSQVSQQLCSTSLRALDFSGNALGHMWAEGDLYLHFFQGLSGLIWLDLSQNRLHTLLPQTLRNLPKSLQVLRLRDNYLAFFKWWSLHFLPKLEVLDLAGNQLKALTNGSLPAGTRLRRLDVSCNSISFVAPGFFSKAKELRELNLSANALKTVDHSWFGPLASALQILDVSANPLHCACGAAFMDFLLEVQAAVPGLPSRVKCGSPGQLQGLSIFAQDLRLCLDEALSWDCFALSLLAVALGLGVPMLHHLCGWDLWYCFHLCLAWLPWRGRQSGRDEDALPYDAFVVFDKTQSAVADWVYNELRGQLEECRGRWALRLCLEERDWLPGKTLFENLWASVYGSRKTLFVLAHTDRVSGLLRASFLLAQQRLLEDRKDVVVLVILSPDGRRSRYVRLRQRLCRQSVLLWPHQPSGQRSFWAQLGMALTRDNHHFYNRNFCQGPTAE

The next test addresses T2, Toll-like receptor 8 (Homo sapiens, UniProt Q9NR97).
T2 sequence (Q9NR97 whole entry): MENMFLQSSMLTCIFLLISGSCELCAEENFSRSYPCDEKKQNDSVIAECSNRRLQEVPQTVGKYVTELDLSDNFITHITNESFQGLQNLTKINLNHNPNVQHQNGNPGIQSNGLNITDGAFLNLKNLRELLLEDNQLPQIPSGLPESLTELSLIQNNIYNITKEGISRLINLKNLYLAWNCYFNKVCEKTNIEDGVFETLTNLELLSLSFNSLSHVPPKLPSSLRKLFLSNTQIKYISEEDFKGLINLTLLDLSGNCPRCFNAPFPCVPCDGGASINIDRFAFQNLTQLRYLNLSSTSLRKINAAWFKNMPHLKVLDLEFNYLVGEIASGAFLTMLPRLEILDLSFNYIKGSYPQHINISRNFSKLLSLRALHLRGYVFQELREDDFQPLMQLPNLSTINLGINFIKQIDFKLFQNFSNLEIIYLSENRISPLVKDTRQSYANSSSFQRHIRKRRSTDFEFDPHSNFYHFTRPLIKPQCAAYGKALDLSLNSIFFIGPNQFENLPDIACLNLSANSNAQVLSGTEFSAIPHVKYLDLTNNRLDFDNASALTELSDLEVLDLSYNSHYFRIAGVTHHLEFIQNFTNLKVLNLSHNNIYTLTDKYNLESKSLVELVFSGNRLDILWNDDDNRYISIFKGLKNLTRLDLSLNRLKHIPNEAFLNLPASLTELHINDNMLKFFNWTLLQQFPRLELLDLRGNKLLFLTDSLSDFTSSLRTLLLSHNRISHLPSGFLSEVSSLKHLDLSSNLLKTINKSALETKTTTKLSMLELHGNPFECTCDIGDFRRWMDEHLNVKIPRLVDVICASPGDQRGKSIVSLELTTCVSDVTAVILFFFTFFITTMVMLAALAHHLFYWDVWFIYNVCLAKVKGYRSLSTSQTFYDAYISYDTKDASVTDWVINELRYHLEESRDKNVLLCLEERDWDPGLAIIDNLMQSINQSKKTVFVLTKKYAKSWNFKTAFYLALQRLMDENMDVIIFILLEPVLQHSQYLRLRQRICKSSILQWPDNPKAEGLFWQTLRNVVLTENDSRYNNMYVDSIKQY

A further test deals with T3, Toll-like receptor 7 (Homo sapiens, UniProt Q9NYK1).
T3 sequence (Q9NYK1 whole entry): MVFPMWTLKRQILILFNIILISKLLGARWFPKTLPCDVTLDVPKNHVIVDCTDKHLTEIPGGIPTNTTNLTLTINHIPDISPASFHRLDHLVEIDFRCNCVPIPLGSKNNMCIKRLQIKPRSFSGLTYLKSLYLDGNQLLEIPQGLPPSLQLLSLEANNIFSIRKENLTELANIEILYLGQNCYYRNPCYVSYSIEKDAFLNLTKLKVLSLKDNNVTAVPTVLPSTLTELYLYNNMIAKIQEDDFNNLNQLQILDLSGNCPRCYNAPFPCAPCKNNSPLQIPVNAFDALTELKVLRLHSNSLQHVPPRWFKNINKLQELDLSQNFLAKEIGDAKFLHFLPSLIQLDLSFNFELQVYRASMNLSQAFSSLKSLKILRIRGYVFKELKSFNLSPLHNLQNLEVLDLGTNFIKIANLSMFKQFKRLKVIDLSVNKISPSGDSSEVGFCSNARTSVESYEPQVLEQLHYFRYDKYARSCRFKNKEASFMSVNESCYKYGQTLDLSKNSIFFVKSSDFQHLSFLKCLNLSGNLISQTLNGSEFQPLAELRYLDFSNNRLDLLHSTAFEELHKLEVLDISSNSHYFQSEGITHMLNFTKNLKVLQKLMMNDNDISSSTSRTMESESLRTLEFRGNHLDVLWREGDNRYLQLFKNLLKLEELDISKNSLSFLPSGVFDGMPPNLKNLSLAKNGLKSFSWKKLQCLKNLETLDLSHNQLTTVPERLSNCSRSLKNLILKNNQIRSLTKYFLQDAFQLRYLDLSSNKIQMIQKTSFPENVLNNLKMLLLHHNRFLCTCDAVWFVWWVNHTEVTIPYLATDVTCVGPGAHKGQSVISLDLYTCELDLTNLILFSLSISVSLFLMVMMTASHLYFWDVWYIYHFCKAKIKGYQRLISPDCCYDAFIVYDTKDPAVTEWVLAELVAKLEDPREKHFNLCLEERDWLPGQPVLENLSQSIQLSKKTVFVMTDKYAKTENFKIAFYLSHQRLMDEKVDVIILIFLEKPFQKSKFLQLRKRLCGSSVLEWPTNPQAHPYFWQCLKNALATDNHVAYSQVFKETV

A value given as a limit tells only on which side of the number the result lay.

Experimental for Toll-like receptor 7: (§1) HEK-Blue-cells (Invivogen) overexpressing human TLR7, TLR8 or TLR9 receptors were used for screening inhibitors of these receptors using an inducible SEAP (secreted embryonic alkaline phosphatase) reporter gene under the control of the IFN-β minimal promoter fused to five NF-κB and AP-1-binding sites. Briefly, cells are seeded into Greiner 384 well plates (15000 cells per well for TLR7, 20,000 for TLR8 and 25,000 for TLR9) and then treated with test compounds in DMSO to yield a final dose response concentration range of 0.05 nM-50 μM. […] After a 22 hour incubation at 37 C., 500 CO2, SEAP levels are determined with the addition of HEK-Blue Detection reagent (Invivogen), a cell culture medium that allows for detection of SEAP, according to manufacturer's specifications. The percent inhibition is determined as the 00 reduction in the HEK-Blue signal present in wells treated with agonist plus DMSO alone compared to wells treated with a known inhibitor.
Experimental for Toll-like receptor 8: as §1
Experimental for Toll-like receptor 9: as §1

By IC50 is commonly meant the concentration needed to halve the response being measured. A lower IC50 goes with inhibition by little substance. With `Cc1c(-c2[nH]c3cnc(C4CCC(N5CC(CO)(CO)C5)CC4)c(F)c3c2C(C)C)cn2ncnc2c1C` (configuration not stated) [US11912703, Example 266], the IC50 on Toll-like receptor 9 was found to be 2.03 µM; against Toll-like receptor 8, 0.023 µM; against Toll-like receptor 7 it was 0.026 µM.
With `CNC(=O)CN1CCN(c2cc3c(C(C)C)c(-c4cc(OC)c5ncnn5c4)[nH]c3cn2)CC1` [US11912703, Example 288], the figures for the IC50 on Toll-like receptor 9, against Toll-like receptor 8 and against Toll-like receptor 7 were 2.87 µM, 0.0085 µM and 0.027 µM, respectively.
As for `CNCC(=O)N1CCN(c2cc3c(C(C)C)c(-c4cc(OC)c5ncnn5c4)[nH]c3cn2)CC1` [US11912703, Example 289], the IC50 against Toll-like receptor 9 was 14 µM; against Toll-like receptor 8, 0.058 µM; on Toll-like receptor 7 it was 0.0037 µM.
As for `COc1cc(-c2[nH]c3cnc(N4CCN(C5COC5)CC4)cc3c2C(C)C)cn2ncnc12` [US11912703, Example 303], the IC50 was over 50 µM against Toll-like receptor 9, 0.012 µM at Toll-like receptor 8 and 0.019 µM at Toll-like receptor 7.

Source of the values: BindingDB's records for patent US11912703 (Bristol Myers Squibb, 2024).
